The record followed here is ChEMBL document CHEMBL1159263, “Cyclic peptides from higher plants, Part 15. Pseudostellarin H, a new cyclic octapeptide from Pseudostellaria heterophylla” (J Nat Prod, 1995).

Peptide text beside a SMILES is read from it.

The target in the experiment is T1, Tyrosinase (Homo sapiens) (UniProt P14679).
T1 sequence (whole entry): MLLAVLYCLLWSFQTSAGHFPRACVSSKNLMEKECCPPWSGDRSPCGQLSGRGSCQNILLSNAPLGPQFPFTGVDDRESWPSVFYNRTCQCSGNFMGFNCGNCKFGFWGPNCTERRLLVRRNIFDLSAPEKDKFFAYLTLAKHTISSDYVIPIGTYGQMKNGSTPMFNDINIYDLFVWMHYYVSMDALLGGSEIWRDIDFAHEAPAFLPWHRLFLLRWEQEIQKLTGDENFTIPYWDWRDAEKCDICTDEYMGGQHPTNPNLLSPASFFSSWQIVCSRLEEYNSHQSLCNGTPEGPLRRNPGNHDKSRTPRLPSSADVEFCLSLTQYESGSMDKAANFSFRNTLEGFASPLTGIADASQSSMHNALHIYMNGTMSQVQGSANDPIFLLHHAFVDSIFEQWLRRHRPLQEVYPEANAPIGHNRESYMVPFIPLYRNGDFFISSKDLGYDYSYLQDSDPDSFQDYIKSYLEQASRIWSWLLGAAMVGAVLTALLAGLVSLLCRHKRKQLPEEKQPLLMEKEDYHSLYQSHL
Briefly: Inhibition of tyrosinase at 800 uM by dopachrome method.

In the case of `CC(C)C[C@@H]1NC(=O)[C@@H]2CCCN2C(=O)[C@H]([C@@H](C)O)NC(=O)[C@@H]2CCCN2C(=O)[C@H]([C@@H](C)O)NC(=O)CNC(=O)[C@H](Cc2ccccc2)NC(=O)[C@H](Cc2ccccc2)NC1=O` (cyclo(FFGTPTPL)), the inhibition amounted to 15%.
